In brackets after ≈: the same amount, converted by molar mass. Read-outs that look alike come from different tables or passages of the source.
Columns and labels:
[1] = tested on: Prevotella spp. clinical isolates; assay: MIC distribution against clinical isolates; type: cell-based; settings: 30 Prevotella spp. isolates
S. pyogenes = assay: Spontaneous mutation frequency and mutation prevention concentration (MPC); type: cell-based; settings: S. pyogenes ATCC 49399
From the text: (§1) As used herein, “spontaneous mutation frequency” refers to the rate at which mutations arise in a bacterium that can lead to resistance to develop to an antimicrobial agent. “Mutation prevention concentration” or “MPC” refers to the lowest concentration of antimicrobial agent above which the selective proliferation of resistant mutants is expected to occur only rarely.

S. pneumonia = assay: as above; type: cell-based; settings: S. pneumoniae ATCC 49619
From the text: as §1

Escherichia coli = assay: as above; type: cell-based
From the text: as §1

B. vulgatus = assay: as above; type: cell-based; settings: B. vulgatus ATCC 8482
From the text: as §1

S. agalactiae = assay: as above; type: cell-based; settings: S. agalactiae ATCC 13813
From the text: as §1

SIBO Bacteria = settings: cited from earlier work
Bacteroides non fragilis = assay: Agar dilution MIC, 29 clinical isolates; type: cell-based, Bacteroides spp.
[2] = tested on: Bacteroides spp. spontaneous mutants; assay: Broth microdilution MIC of spontaneous mutants; type: cell-based; settings: read-out: MIC
Outline: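 Isolates from drug selection plates were subcultured on agar containing drug at the selection concentration and identified by MALDI, then MIC was determined by CLSI broth microdilution (M100-S28) with serial two-fold dilutions. Plates were pre-reduced 1 h in an anaerobic chamber; final inoculum ~1×10^6 CFU/mL.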

E. coli MMX 1312 = assay: Time-kill assay; type: cell-based, Escherichia coli
[3] = E. coli ATCC 25922, selection 4X MIC, 0.06 μg/mL
[4] = E. coli ATCC 35218, selection 4X MIC, 0.06 μg/mL
[5] = E. coli MMX 1312, selection 4X MIC, 0.06 μg/mL, TNTC = too numerous to count
[6] = 29 Bacteroides non-fragilis clinical isolates

## C[C@@H](O)[C@H]1C(=O)N2C(C(=O)O)=C(S[C@@H]3CN[C@H](C(=O)N(C)C)C3)[C@H](C)[C@H]12 [meropenem]
[1]; MIC 0.015 μg/mL
  Cumulative percentage of isolates inhibited at MIC: 16.7%
  Number of test isolates at MIC: 3
[1]; MIC 0.03 μg/mL
  Cumulative percentage of isolates inhibited at MIC: 36.7%
  Number of test isolates at MIC: 6
[1]; MIC 0.06 μg/mL
  Cumulative percentage of isolates inhibited at MIC: 76.7%
  Number of test isolates at MIC: 12
[1]; MIC ≤0.008 μg/mL
  Cumulative percentage of isolates inhibited at MIC: 6.7%
  Number of test isolates at MIC: 2
S. pyogenes
  MPC: 0.03 µg/mL
S. pyogenes; selection 4X MIC, 0.03 μg/mL
  Average Count: 0 CFU
  Count 1: 0 CFU
  Count 2: 0 CFU
  Spontaneous Mutation Frequency: ≤1.81 × 10^−10
S. pyogenes; selection 8X MIC, 0.06 μg/mL
  Average Count: 0 CFU
  Count 1: 0 CFU
  Count 2: 0 CFU
  Spontaneous Mutation Frequency: ≤1.81 × 10^−10
S. pneumonia
  MPC: 0.25 µg/mL
S. pneumonia; selection 8X MIC, 0.5 μg/mL
  Average Count: 0 CFU
  Count 1: 0 CFU
  Count 2: 0 CFU
  Spontaneous Mutation Frequency: ≤9.52 × 10^−10
Escherichia coli
  Average Count: 0 CFU
  Count 1: 0 CFU
  Count 2: 0 CFU
Escherichia coli; E. coli ATCC 25922
  MPC: 0.06 µg/mL
Escherichia coli; [3]
  Average Count: 0 CFU
  Count 1: 0 CFU
  Count 2: 0 CFU
  Spontaneous Mutation Frequency: ≤7.41 × 10^−9
Escherichia coli; E. coli ATCC 35218
  MPC: 0.06 µg/mL
Escherichia coli; [4]
  Average Count: 0 CFU
  Count 1: 0 CFU
  Count 2: 0 CFU
  Spontaneous Mutation Frequency: ≤5.13 × 10^−9
Escherichia coli; [5]
  Average Count: TNTC
  Count 1: TNTC
  Count 2: TNTC
B. vulgatus
  MPC: 0.5 µg/mL
B. vulgatus; selection 4X MIC, 0.5 μg/mL
  Average Count: 0 CFU
  Count 1: 0 CFU
  Count 2: 0 CFU
  Spontaneous Mutation Frequency: ≤1.73 × 10^−10
B. vulgatus; selection 8X MIC, 1 μg/mL
  Average Count: 0 CFU
  Count 1: 0 CFU
  Count 2: 0 CFU
  Spontaneous Mutation Frequency: ≤1.73 × 10^−10
S. agalactiae
  MPC: 0.12 µg/mL
SIBO Bacteria
  activity against SIBO organisms: active against SIBO organisms
Bacteroides non fragilis
  isolates with intermediate resistance: Three
Bacteroides non fragilis; [6]
  % I: 3%
  % S: 97%
  MIC50: 0.5 µg/mL (≈ 1.3 µM)
  MIC90: 2 µg/mL (≈ 5.22 µM)
Bacteroides non fragilis; Bacteroides, read-out: MIC50
  MIC50: 0.5 µg/mL (≈ 1.3 µM)
Bacteroides non fragilis; Bacteroides, read-out: MIC90
  MIC90: 2 µg/mL (≈ 5.22 µM)
Bacteroides non fragilis; modal MIC, 29 Bacteroides non-fragilis clinical isolates
  Mode: 0.5 µg/mL
[2]; B. fragilis ATCC 25285, selected on rifaximin 4X MIC, Colony A
  MIC: 0.03 µg/mL
[2]; B. fragilis ATCC 25285, selected on rifaximin 4X MIC, Colony B
  MIC: 0.06 µg/mL
[2]; B. fragilis ATCC 25285, selected on rifaximin 8X MIC, Colony A
  MIC: 0.06 µg/mL
[2]; B. fragilis ATCC 25285, selected on rifaximin 8X MIC, Colony B
  MIC: 0.06 µg/mL
[2]; B. fragilis ATCC 25285 Parent
  MIC: 0.06 µg/mL
[2]; B. ovatus MMX 3503, selected on rifaximin 4X MIC, Colony A
  MIC: 0.12 µg/mL
[2]; B. ovatus MMX 3503, selected on rifaximin 4X MIC, Colony B
  MIC: 0.12 µg/mL
[2]; B. ovatus MMX 3503, selected on rifaximin 8X MIC, Colony A
  MIC: 0.12 µg/mL
[2]; B. ovatus MMX 3503, selected on rifaximin 8X MIC, Colony B
  MIC: 0.12 µg/mL
[2]; B. ovatus MMX 3503 Parent
  MIC: 0.12 µg/mL
[2]; B. vulgatus ATCC 8482, selected on ceftriaxone 4X MIC, Colony A
  MIC: 0.25 µg/mL
[2]; B. vulgatus ATCC 8482, selected on ceftriaxone 4X MIC, Colony B
  MIC: 0.25 µg/mL
[2]; B. vulgatus ATCC 8482, selected on rifaximin 4X MIC, Colony A
  MIC: 0.12 µg/mL
[2]; B. vulgatus ATCC 8482, selected on rifaximin 4X MIC, Colony B
  MIC: 0.12 µg/mL
[2]; B. vulgatus ATCC 8482, selected on rifaximin 8X MIC, Colony A
  MIC: 0.25 µg/mL
[2]; B. vulgatus ATCC 8482, selected on rifaximin 8X MIC, Colony B
  MIC: 0.12 µg/mL
[2]; B. vulgatus ATCC 8482 Parent (Table 50)
  MIC: 0.12 µg/mL
[2]; B. vulgatus ATCC 8482 Parent (Table 54)
  MIC: 0.12 µg/mL
E. coli MMX 1312; 2×, 4×, 8× MIC, 2, 6, 24 hr
  time-kill kinetics outcome (bactericidal = ≥3 log reduction in CFU per mL): regrowth was observed at 24 hr for all concentrations
E. coli MMX 1312; 8×MIC, 6 hr timepoint
  CFU decrease: 3 log10 CFU

From patent US20210386367A1, “DEVICES AND SYSTEMS FOR GASTROINTESTINAL MICROBIOME DETECTION AND MANIPULATION” (Progenity, Inc., priority 2018, published 2021)
